Data on 5 molecules can be found in US7884099B2 (priority 2007, dated 2011).

Experiment [1] has as its system Escherichia coli ATCC 25922. Description: MIC by microbroth dilution, E. coli ATCC 25922. It is filed as cell-based. The procedure: (§1) Representative compounds are assayed for antimicrobial activity as follows: Minimum Inhibitory Concentrations (MICs) against Staphylococcus aureus ATCC 29213, its isogenic derivative, and Escherichia coli ATCC 25922 were determined by the microbroth dilution method, as per NCCLS guidelines (National Committee for Clinical Laboratory Standards 2000).

The subject of the next experiment is S. aureus rpoB^H481Y. Briefly: MIC by microbroth dilution, rifamycin-resistant S. aureus rpoB H481Y. It is filed as cell-based, Staphylococcus aureus. The settings on record: for MIC: Staphylococcus aureus, read-out: MIC S. aureus rpoB^H481Y. The procedure:
as §1
On the technique in general: Broth dilution looks for growth in wells or tubes with falling amounts of substance.

Experiment [2] concerns S. aureus rpoB^H481Y gyrA^S84L parC^S80F. Description: MIC by microbroth dilution, triple mutant S. aureus. To be noted: Staphylococcus aureus, read-out: MIC S. aureus rpoB^H481Y gyrA^S84L parC^S80F. It is filed as cell-based. The method, then:
as §1

Experiment [3] concerns Staphylococcus aureus ATCC 29213. Description: MIC by microbroth dilution, S. aureus ATCC 29213. The format is cell-based. The procedure:
as §1

In experiment [4] the test system is S. aureus gyrA^S84L parC^S80F. Description: MIC by microbroth dilution, quinolone-resistant S. aureus gyrA S84L parC S80F. The format is cell-based, Staphylococcus aureus. To be noted: for MIC: Staphylococcus aureus, read-out: MIC S. aureus gyrA^S84L parC^S80F. The method, then:
as §1

The test system of experiment [5] is Wild-type and Genetically-Defined Resistant Strains of Bacteria. Description: Antibacterial activity against wild-type and genetically-defined resistant strains (overall statement on Table 1). To be noted: summary of Table 1. The format is cell-based. The method, then:
as §1

The mark [6] stands for this setting: ATCC25922, read-out: MIC E. coli ATCC# 25922.
Setting [7] is: ATCC29213, read-out: MIC S. aureus ATCC# 29213.
Where [8] appears, read: ATCC25922, microbroth dilution, NCCLS, read-out: MIC E. coli ATCC# 25922.
Setting [9] is: ATCC29213, wild-type, microbroth dilution, NCCLS, read-out: MIC S. aureus ATCC# 29213.

The structures appear in SMILES notation. In brackets after ≈: the same amount, converted by molar mass. Read-outs that look alike come from different tables or passages of the source. Bounds are passed on as bounds.

One may read the MIC as the least concentration at which growth counts as inhibited. `COc1c(N2CCN(c3cc(O)c4nc5c6c7c8c(C)c(O)c6c(=O)c(c-5oc4c3)NC(=O)/C(C)=C\C=C\[C@H](C)[C@H](O)[C@@H](C)[C@@H](O)[C@@H](C)[C@H](OC(C)=O)[C@H](C)[C@@H](OC)/C=C/O[C@@](C)(O8)C7=O)CC2)c(F)cc2c(=O)c(C(=O)O)cn(C3CC3)c12` [Example 3, 5′-[4-(3-Carboxy-1-cyclopropyl-6-fluoro-8-methoxy-4-oxo-1,4-dihydroquinolin-7-yl)-piperazin-1-yl]-3′-hydroxy-benzoxazinorifamycin]: the MIC in experiment [1] (setting [6]) was determined as 4 µg/mL (≈ 3.45 µM); in the experiment on S. aureus rpoB^H481Y it was 0.24 µg/mL (≈ 0.207 µM); in experiment [2], 8 µg/mL (≈ 6.9 µM); in experiment [3] (setting [7]) it was 0.008 µg/mL (≈ 0.0069 µM); in experiment [4], 0.008 µg/mL (≈ 0.0069 µM). For the same molecule, the “antibacterial activity (in words)” value in experiment [5] was “potent antibacterial activity”.
On to `O=C(O)c1cn(C2CC2)c2cc(N3CCNCC3)c(F)cc2c1=O` [ciprofloxacin, reference compound], for which the MIC in experiment [1] (setting [8]) was 0.008 µg/mL (≈ 0.0241 µM); in the experiment with S. aureus rpoB^H481Y, 0.24 µg/mL (≈ 0.724 µM); in experiment [2], above 32 µg/mL; in experiment [3] (setting [9]) it was 0.24 µg/mL (≈ 0.724 µM); in experiment [4], above 32 µg/mL. The “activity against quinolone-resistant S. aureus gyrA^S84L parC^S80F (in words)” value in experiment [4] (mutations in gyrase and topoisomerase IV) is on record as “not as effective”.
Take `CO[C@H]1/C=C/O[C@@]2(C)Oc3c(C)c(O)c4c(=O)c(c5oc6cc(N7CCC(N(C)C8([C@@H]9CCN(c%10c(F)cn%11c(=O)c(C(=O)O)cc(C%12CC%12)c%11c%10C)C9)CC8)CC7)cc(O)c6nc-5c4c3C2=O)NC(=O)/C(C)=C\C=C\[C@H](C)[C@H](O)[C@@H](C)[C@@H](O)[C@@H](C)[C@H](OC(C)=O)[C@@H]1C` [Example 1]: the MIC in experiment [1] (setting [6]) is 0.5 µg/mL (≈ 0.39 µM); with S. aureus rpoB^H481Y, 0.12 µg/mL (≈ 0.0936 µM); in experiment [2] it was 2 µg/mL (≈ 1.56 µM); in experiment [3] (setting [7]), below 0.004 µg/mL; in experiment [4], below 0.004 µg/mL.
As to `COc1c(N2CC[C@@H](C3(N(C)C4CCN(c5cc(O)c6nc7c8c9c%10c(C)c(O)c8c(=O)c(c-7oc6c5)NC(=O)/C(C)=C\C=C\[C@H](C)[C@H](O)[C@@H](C)[C@@H](O)[C@@H](C)[C@H](OC(C)=O)[C@H](C)[C@@H](OC)/C=C/O[C@@](C)(O%10)C9=O)CC4)CC3)C2)c(F)cc2c(=O)c(C(=O)O)cn(C3CC3)c12` [Example 2, (R)-5′-[4-[1-[1-(3-Carboxy-1-cyclopropyl-6-fluoro-8-methoxy-4-oxo-1,4-dihydro-quinoline-7-yl)-pyrrolidin-3-yl-cyclopropyl-methyl]-amino]-piperidin-1-yl]-3′-hydroxy-benzoxazinorifamycin], the MIC in experiment [1] (setting [6]) worked out at 4 µg/mL (≈ 3.08 µM); with S. aureus rpoB^H481Y, 0.5 µg/mL (≈ 0.385 µM); in experiment [2], 4 µg/mL (≈ 3.08 µM); in experiment [3] (setting [7]), 0.008 µg/mL (≈ 0.00617 µM); in experiment [4], 0.016 µg/mL (≈ 0.0123 µM). In experiment [5], the “antibacterial activity (in words)” value is on record as “potent antibacterial activity”.
As to `CO[C@H]1/C=C/O[C@@]2(C)Oc3c(C)c(O)c4c(O)c(c(/C=N/N5CCN(C)CC5)c(O)c4c3C2=O)NC(=O)/C(C)=C\C=C\[C@H](C)[C@H](O)[C@@H](C)[C@@H](O)[C@@H](C)[C@H](OC(C)=O)[C@@H]1C` [rifampin, reference compound], the MIC in experiment [1] (setting [8]) is 8 µg/mL (≈ 9.72 µM); with S. aureus rpoB^H481Y, above 64 µg/mL; in experiment [2] it was above 64 µg/mL; in experiment [3] (setting [9]), 0.008 µg/mL (≈ 0.00972 µM); in experiment [4], 0.008 µg/mL (≈ 0.00972 µM). In addition, the “activity against rifamycin-resistant S. aureus rpoB^H481Y (in words)” value in the experiment with S. aureus rpoB^H481Y (mutation in RNA polymerase) was “not as effective”.
